Where a name gives a salt, the structure may show the parent alone.
Columns and labels:
Format in all cases: in vivo, mice
[1] = system: AA splenic amyloid deposition; test: Chronic amyloidosis (LPS + AEF, inflammatory stimulus maintained), oral treatment from day 7, Experiments 5 and 6
Procedure: (§1) In the following experiments, a well-characterized mouse model of amyloidosis was used. In this in vivo system, animals receive an inflammatory stimulus and amyloid enhancing factor. For acute amyloidosis (i.e., short term amyloid deposition), the inflammatory stimulus is AgNO3. For chronic amyloidosis (ongoing amyloid deposition), the inflammatory stimulus is lipopolysaccharide (LPS). Amyloid deposition (AA amyloid) in the spleens of mice was measured with and without therapeutic treatment.
To maintain the inflammation and the blood SAA levels, and allow amyloid to be continuously deposited for the duration of a longer term experiment, the nature of the inflammatory stimulus was changed. So as to maintain the inflammation, animals received lipopolysaccharide (LPS, 20 µg)+ AEF on day 0 and LPS was given by intraperitoneal injection every 2nd day. On day seven (7), the animals were separated into two groups as described in Experiment 4. Assessment of amyloid over the course of the experiment proceeded as described in Experiment 4. The control group (triangles) continued to deposit amyloid for the entire 17 day period. Those receiving PVS apparently stopped depositing amyloid by day 14 (open circles and dashed line). The data on day 17 represent 4 animals per group as one animal was omitted from this time period. The quantity of amyloid in this particular individual was so far removed from all other data points (treated or not, it was 21%) that it is believed that this was a statistically valid procedure. If this individual is included, the curve is represented by the dotted line and the remaining open circle. It should be pointed out that animals receiving PVS began to develop a significant diarrhea as the experiment proceeded.
In this experiment, another sulfonated compound, ethane monosulfate was used to inhibit amyloidosis. Ethane monosulfonate, sodium salt, (EMS) is structurally the monomeric unit of PVS. Animals were given LPS + AEF as in Experiment 5, but on day seven EMS was used in the drinking water as the therapeutic agent. […]

amyloid deposition = test: Acute amyloidosis (AgNO3 + AEF), oral sulfonated lower aliphatics, visual examination of spleen sections, Experiment 8; conditions: 50 µM in drinking water, six days; preliminary visual analysis of spleen sections
Procedure: Acute amyloidosis was elicited in mice with AgNO3 and amyloid enhancing factor as described in Experiment 2. Twenty-four hours later, the animals were divided into a control group and six test groups. The control group was maintained on standard laboratory mouse chow and tap water ad. lib. The test groups received standard chow but their water contained 50 µM of one of the following six compounds: ethanesulfonic acid sodium salt, 2-amino-ethanesulfonic acid sodium salt (taurine), propane-1-sulfonic acid sodium salt, ethane-1,2-disulfonic acid sodium salt, propane-1,3-disulfonic acid sodium salt, or butane-1,4-disulfonic acid sodium salt. Water intake was approximately equivalent for all groups. After six days, the animals were sacrificed and their spleens were processed as described for Experiment 2. For preliminary analysis, the spleen sections were examined visually under a microscope for differences in amyloid deposition in the treated animals versus the control animals.

[2] = system: AA amyloid deposition in mouse spleen; test: Acute AA amyloidosis mouse model (AgNO3 + AEF), intraperitoneal treatment, Experiment 1; conditions: 36.5 mg/injection IP every 8 hours, mean ± S.E.M., n = 5, untreated 7.8, p ≤ 0.02, immunostained sections, image analysis
Procedure: as §1
All mice were of the CD strain (Charles Rivers, Montreal, Quebec) and weighing 25-30 g. […]
At the termination of the experiments, the animals were sacrificed by cervical dislocation and the spleens, livers, and kidneys were fixed in 96% ethanol, 1% glacial acetic acid and 3% water as described in Lyon, A.W. et al. ("Co-deposition of Basement Membrane Components During the Induction of Murine Splenic AA Amyloid" Lab. Invest. 64:785-790 (1991)). […] The histologic sections viewed under polarized light were assessed by image analysis for the percent of spleen occupied by amyloid. In the case of the experiments with sucrose octasulfate, the tissues were immunostained with an antibody to the SAA protein (described in Lyon A.W. et al. Lab Invest. 64:785-790 (1991)) and the immunostained sections assessed by image analysis for the percent of tissue section occupied by amyloid.

[3] = Viability of animals under intraperitoneal therapy, Experiment 1
Procedure: All animals received AgNO3 (0.5 ml, 2% solution) subcutaneously in the back, and amyloid enhancing factor (AEF) 100 µg intravenously. The preparation of amyloid enhancing factor has been described previously in Axelrad, M.A. et al. ("Further Characterization of Amyloid Enhancing Factor" Lab. Invest. 47:139-146 (1982)). The animals were divided into several groups one of which was an untreated control group which was sacrificed six days later. The remaining animals were divided into those which received poly(vinyl sulfonic acid sodium salt) (PVS) at 50 mg, 40 mg, 20 mg, or 10mg by intraperitoneal injection every 12 hours or sucrose octasulfate ammonium salt (SOA) at 73 mg or 36.5 mg every 8 hours by IP injection. Surviving animals were sacrificed on the 5th day of treatment. In all cases the PVS or SOA was dissolved in a sterile aqueous carrier.
All control animals survived the experiment without incident. […] Animals receiving 36.5 mg of sucrose octasulfate/injection all survived. […] In all cases of animal deaths prior to the end of the experiments, the cause of death was uncontrolled intraperitoneal hemorrhage.
Intraperitoneal injection was selected as providing a large membrane surface for ease of access to the circulating system. […]

SMILES: CCS(=O)(=O)O [EMS, Ethane monosulfonate, sodium salt]
- course of splenic amyloid deposition (Figure 8) ([1]; 6 mg/ml EMS in drinking water from day 7): stopped depositing amyloid after day 14
- gastrointestinal side effect ([1]; EMS 2.5 or 6 mg/ml in drinking water): did not develop gastrointestinal problems
- inhibition of chronic amyloid deposition ([1]; restated in Experiment 8 with reference to Experiment 6): has been observed to inhibit chronic amyloid deposition
- amyloid deposition versus control animals (amyloid deposition): not observed to have less amyloid deposition than control animals

SMILES: O=S(=O)([O-])CCCCS(=O)(=O)[O-].[Na+].[Na+] [butane-1,4-disulfonic acid sodium salt]
- amyloid deposition versus control animals (amyloid deposition): not observed to have less amyloid deposition than control animals

SMILES: O=S(=O)([O-])CCS(=O)(=O)[O-].[Na+].[Na+] [ethane-1,2-disulfonic acid sodium salt]
- amyloid deposition versus control animals (amyloid deposition): less amyloid deposition than control animals

SMILES: O=S(=O)([O-])CCCS(=O)(=O)[O-].[Na+].[Na+] [propane-1,3-disulfonic acid sodium salt]
- amyloid deposition versus control animals (amyloid deposition): less amyloid deposition than control animals

SMILES: CCCS(=O)(=O)[O-].[Na+] [propane-1-sulfonic acid sodium salt]
- amyloid deposition versus control animals (amyloid deposition): less amyloid deposition than control animals

SMILES: N.N.N.N.N.N.N.N.O=S(=O)(O)OC[C@H]1O[C@@](COS(=O)(=O)O)(O[C@H]2O[C@H](COS(=O)(=O)O)[C@@H](OS(=O)(=O)O)[C@H](OS(=O)(=O)O)[C@H]2OS(=O)(=O)O)[C@@H](OS(=O)(=O)O)[C@@H]1OS(=O)(=O)O [sucrose octasulfate, sucrose octasulfate ammonium salt]
- % Area Occupied by Amyloid ([2]; ammonium salt): 3.2% ± 0.5%
- % Area Occupied by Amyloid ([2]; listed as Sucrose OctaSO4, ammonium salt): 3.2 ± 0.5%
- viability of animals ([3]; 36.5 mg/injection IP every 8 hours): all survived
- viability of animals ([3]; 73 mg/injection IP every 8 hours, cause of death intraperitoneal hemorrhage): succumbed prior to the termination of the experiment

SMILES: NCCS(=O)(=O)[O-].[Na+] [taurine sodium salt, 2-amino-ethanesulfonic acid sodium salt]
- amyloid deposition versus control animals (amyloid deposition): not observed to have less amyloid deposition than control animals
